{
  "source": "patent US10842801B2",
  "about": "“Optimizing mifepristone absorption” (Corcept Therapeutics, Inc., priority 2011, dated 2020)",
  "key": {"[1]": {"test": "Food effect studies: pharmacokinetics of mifepristone under fasting and fed conditions", "assay_type": "in vivo, human", "conditions": "for AUC(0-inf) / Cmax / AUC(0-t): human, plasma, oral; for AUC(0-inf): read-out: AUCinf Geo Mean; for Cmax: read-out: Cmax Geo Mean; for AUC(0-t): read-out: AUC0-24 Geo Mean", "description": "Blood is collected from a patient in a vacutainer containing sodium heparin. The blood is centrifuged and the resulting plasma frozen at an appropriate temperature until assay. In some embodiments, the temperature is about -70° C. In other embodiments, other blood components can be collected and stored. Prior to analysis, the plasma is thawed and a fraction of the plasma is mixed with an internal standard in a solvent such as acetonitrile, to obtain a fixed concentration of the standard. In some embodiments, the internal standard can be mifepristone-d4. […] Base is then added to the sample solution. The base can be any amine or ammonium base, such as ammonium hydroxide. […] Solvent is then added to the solution and the mifepristone (along with the internal standard) are extracted from the plasma. […] Following separation and concentration of the organic layer, the sample is reconstituted in a solvent mixture comprising water, acetonitrile and formic acid. The ratio of the solvent components can vary. In some embodiments, the solvent mixture is water:acetonitrile:formic acid (75:25:0.1, v/v/v). […] The sample can then be analyzed by reverse-phase high pressure liquid chromatography (HPLC). In some embodiments, the reverse-phase HPLC is performed using a water:acetonitrile:formic acid (60:40:0.1) mobile phase (isocratic) at a flow rate of 0.3 mL/min. […] The reverse-phase HPLC column can be a phenyl column maintained at 50° C. […] Following elution, the mobile phase can be nebulized using heated nitrogen in a Z-spray source/interface and the ionized compounds detected using a tandem quadrupole mass spectrometer. Mifepristone (molecular weight of 430 g/mol) can be detected at m/z 372.30. The internal standard mifepristone-d4 can be detected at m/z 376.30. The ratio of the mifepristone peak height to the peak height for the internal standard can then be calculated. The plasma concentration of mifepristone is then calculated by comparing the experimental ratio to a standard curve of mifepristone:mifepristone-d4 peak height ratio v. mifepristone concentration. […] In all studies, healthy adults were randomized to a sequence of administration of mifepristone drug product under fasting and fed conditions. […] The test group was comprised of 10 healthy adult subjects who were randomized to receive mifepristone at 600 mg/day for up to 14 days in Cohort 3 of Study CORT-108297-102. For this comparison the PK data after 7 days of dosing were used. […] The meal was given every day at approximately 30 min prior to receiving mifepristone, which was dosed as two 300 mg tablets once daily."}, "[2]": {"test": "Plasma drug concentration in different patients given the same dose of mifepristone", "assay_type": "in vivo, human"}, "[3]": {"conditions": "600 mg single dose, Fed (50% fat) vs Fast, Study 12"}, "[4]": {"conditions": "600 mg/day for 7 days following a breakfast of 34% fat, Day 7"}, "[5]": {"conditions": "600 mg/day x 7 days, Fed (34% fat) vs Fast, C3"}, "[6]": {"conditions": "1200 mg single dose, Fed (50% fat) vs Fast, Study 20"}, "[7]": {"conditions": "1200 mg/day x 7 days, Fed (34% fat) vs Fast, Study 27"}, "[8]": {"conditions": "1200 mg/day, high fat (50%) meal on day 8 after 7 days with typical fat meals"}, "[9]": {"conditions": "600 mg, 600 mg single dose, Fast, healthy adults, Study 12"}, "[10]": {"conditions": "600 mg, 600 mg single dose, Fed 50% fat, healthy adults, Study 12"}, "[11]": {"conditions": "600 mg/day, 600 mg/day x 7 days, Fast, healthy adults, historical Studies C-1073-05 and C-1073-300 Part II (reference for C3)"}, "[12]": {"conditions": "600 mg/day, 600 mg/day x 7 days, Fed 34% fat, healthy adults, Cohort 3 of CORT-108297-102"}, "[13]": {"conditions": "1200 mg, 1200 mg single dose, Fast, healthy adults, Study 20"}, "[14]": {"conditions": "1200 mg, 1200 mg single dose, Fed 50% fat, healthy adults, Study 20"}, "[15]": {"conditions": "1200 mg/day, 1200 mg/day x 7 days, Fed 34% fat, healthy adults, Study 27"}},
  "note": "Read-outs that look alike come from different tables or passages of the source.",
  "data": [
    {"smiles": "CC#C[C@]1(O)CC[C@H]2[C@@H]3CCC4=CC(=O)CCC4=C3[C@@H](c3ccc(N(C)C)cc3)C[C@@]21C", "note": "[Mifepristone, 17-beta-hydroxy-11-beta-(4-dimethyl-aminophenyl)-17-alpha-(1-propynyl)-estra-4,9-dien-3-one]", "values": [
      {"measurement": "AUCinf Ratio of Geometric Means", "setting": "[1]; [3]", "value": 1.29},
      {"measurement": "Cmax Ratio of Geometric Means", "setting": "[1]; [3]", "value": 1.19},
      {"measurement": "increase in AUC0-24 as compared to the same dose in the fasted state", "setting": "[1]; [4]", "value": 44, "unit": "%"},
      {"measurement": "increase in Cmax as compared to the same dose in the fasted state", "setting": "[1]; [4]", "value": 34, "unit": "%"},
      {"measurement": "AUC0-24 Ratio of Geometric Means", "setting": "[1]; [5]", "value": 1.44},
      {"measurement": "Cmax Ratio of Geometric Means", "setting": "[1]; [5]", "value": 1.34},
      {"measurement": "AUCinf Ratio of Geometric Means", "setting": "[1]; [6]", "value": 1.42},
      {"measurement": "Cmax Ratio of Geometric Means", "setting": "[1]; [6]", "value": 1.30},
      {"measurement": "mean increase in mifepristone exposure relative to the fasted state", "setting": "[1]; 1200 mg/day for 7 days with typical fat meals vs 7 days fasted", "value": 65, "unit": "%"},
      {"measurement": "Cmax Geo Mean", "setting": "[1]; 1200 mg/day x 7 days, Fast, healthy adults, Study 27", "value": 3223, "unit": "ng/mL"},
      {"measurement": "AUC0-24 Ratio of Geometric Means", "setting": "[1]; [7]", "value": 1.65},
      {"measurement": "Cmax Ratio of Geometric Means", "setting": "[1]; [7]", "value": 1.56},
      {"measurement": "effect on Cmax of switching to a high fat meal", "setting": "[1]; [8]", "value": "little or no effect"},
      {"measurement": "effect on exposure of switching to a high fat meal", "setting": "[1]; [8]", "value": "little or no effect"},
      {"measurement": "AUC(0-inf)", "setting": "[1]; [9]", "value": 104000, "unit": "ng·h/mL"},
      {"measurement": "Cmax", "setting": "[1]; [9]", "value": 2310, "unit": "ng/mL"},
      {"measurement": "AUC(0-inf)", "setting": "[1]; [10]", "value": 134000, "unit": "ng·h/mL"},
      {"measurement": "Cmax", "setting": "[1]; [10]", "value": 2740, "unit": "ng/mL"},
      {"measurement": "AUC(0-t)", "setting": "[1]; [11]", "value": 43600, "unit": "ng·h/mL"},
      {"measurement": "Cmax", "setting": "[1]; [11]", "value": 3040, "unit": "ng/mL"},
      {"measurement": "AUC(0-t)", "setting": "[1]; [12]", "value": 62600, "unit": "ng·h/mL"},
      {"measurement": "Cmax", "setting": "[1]; [12]", "value": 4070, "unit": "ng/mL"},
      {"measurement": "AUC(0-inf)", "setting": "[1]; [13]", "value": 134000, "unit": "ng·h/mL"},
      {"measurement": "Cmax", "setting": "[1]; [13]", "value": 2830, "unit": "ng/mL"},
      {"measurement": "AUC(0-inf)", "setting": "[1]; [14]", "value": 191000, "unit": "ng·h/mL"},
      {"measurement": "Cmax", "setting": "[1]; [14]", "value": 3660, "unit": "ng/mL"},
      {"measurement": "AUC(0-t)", "setting": "[1]; 1200 mg/day, 1200 mg/day x 7 days, Fast, healthy adults, Study 27", "value": 44200, "unit": "ng·h/mL"},
      {"measurement": "AUC(0-t)", "setting": "[1]; [15]", "value": 72800, "unit": "ng·h/mL"},
      {"measurement": "Cmax", "setting": "[1]; [15]", "value": 5040, "unit": "ng/mL"},
      {"measurement": "dose proportionality of exposure and Cmax", "setting": "[1]; multiple dosing, doses above 600 mg, fasted", "value": "strong lack of dose proportionality"},
      {"measurement": "difference in plasma drug concentration from one patient to another", "setting": "[2]", "value": "≤ 800", "unit": "%"}
    ]}
  ]
}
